We go through 28 molecules from US20250170104A1, “INHIBITORS OF PSEUDOMONAS AERUGINOSA VIRULENCE FACTOR Lasß” (priority 2022, published 2025).

Usually IC50 stands for the concentration needed to halve the response being measured. High values mean lower potency, low ones higher potency.

Chain of LasB (P14756 198-498): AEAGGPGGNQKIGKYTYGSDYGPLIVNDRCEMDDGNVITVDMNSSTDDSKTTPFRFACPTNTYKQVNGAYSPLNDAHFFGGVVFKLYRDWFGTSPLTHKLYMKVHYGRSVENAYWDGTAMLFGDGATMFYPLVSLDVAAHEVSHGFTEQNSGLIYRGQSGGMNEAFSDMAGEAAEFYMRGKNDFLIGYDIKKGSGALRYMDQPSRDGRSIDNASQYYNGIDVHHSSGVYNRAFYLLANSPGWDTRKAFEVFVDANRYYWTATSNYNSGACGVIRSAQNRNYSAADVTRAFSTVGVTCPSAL

For this test, the target named is LasB (Pseudomonas aeruginosa (strain ATCC 15692 / DSM 22644 / CIP 104116 / JCM 14847 / LMG 12228 / 1C / PRS 101 / PAO1), UniProt P14756). As to the kind of experiment: In vitro LasB activity assay (fluorogenic substrate). The note with it: LasB 0.3 nM, substrate 150 μM, mean ± SD. It counts as biochemical. Here is the method:
The LasB activity assay was performed as described previously (Nishino N, Powers J C. Pseudomonas aeruginosa elastase. Development of a new substrate, inhibitors, and an affinity ligand. J Biol Chem. 1980 Apr. 25; 255(8):3482-6) using the fluorogenic substrate 2-Aminobenzoyl-L-Alanyl-Glycyl-L-Leucyl-L-Alanyl-para-Nitro-Benzyl-Amide, purchased from Peptides International (Louisville, KY, USA) and vivitide, LLC (Gardner, MA, USA).
Fluorescence intensity was measured for 60 min at 37° C. in black 384-well microtiter plates (Greiner BioOne, Kremsmünster, Austria) using a CLARIOstar microplate reader (BMG Labtech, Ortenberg, Germany) with an excitation wavelength of […] and an emission wavelength of 415±20 nm. The assay was performed in a final volume of 50 μL of assay buffer (50 mM Tris, pH 7.2, 2.5 mM CaCl2), 0.075% Pluronic F-127, 5% DMSO) containing LasB at a final concentration of […] 0.3 nM and the substrate at 150 μM. Before substrate addition, compounds were preincubated with the enzyme at 37° C. for 15 min. Experiments were performed in duplicates and repeated for at least two times. Blank controls without enzyme were performed. After blank subtraction, the slope of samples containing inhibitors (v) was divided by the slope of a simultaneously started uninhibited enzymatic reaction (v0). IC50 values were determined with nonlinear regression using GraphPad Prism 5 (Graph Pad Software, San Diego, CA, USA) and are given as mean values ±standard deviation (SD). The slope factor was constrained to 1.
In turn, `CC(C)CC(C(=O)NO)C(=O)Nc1ccc(Cn2cc(-c3ccc(I)cc3)nn2)cc1` (stereo not shown) [Compound 138, 2-(Hydroxycarbamoyl)-N-[4-[[4-(4-iodophenyl)triazol-1-yl]methyl]phenyl]-4-methyl-pentanamide] displayed an IC50 of 37.8 ± 2.9 nM.
Molecule `O=C(NO)C(Cc1ccccc1)C(=O)Nc1ccc(Cn2cc(CNS(=O)(=O)c3ccc(I)cc3)nn2)cc1` (stereo not shown) [Compound 179, 2-Benzyl-3-(hydroxyamino)-N-[4-[[4-[[(4-iodophenyl)sulfonylamino]methyl]triazol-1-yl]methyl]phenyl]-3-oxo-propanamide] came in with an IC50 of 1 ± 0.6 nM. Against the preceding molecule, the IC50 is about 38-fold lower.
With `CC(C)CC(C(=O)NO)C(=O)Nc1ccc(Cn2cc(C3CSCN3C(=O)c3ccc(F)cc3)nn2)cc1` (stereo not shown) [Hit L4, N-[4-[[4-[3-(4-Fluorobenzoyl)thiazolidin-4-yl]triazol-1-yl]methyl]phenyl]-2-(hydroxycarbamoyl)-4-methyl-pentanamide], the midpoint of inhibition, the IC50, lay at 6.6 ± 0.2 nM.
With `CC(C)CC(C(=O)NO)C(=O)Nc1ccc(Cn2cc(CNC(=O)OC(C)(C)C)nn2)cc1` (stereo not shown) [Compound 133, Tert-butyl N-[[1-[[4-[[2-(hydroxycarbamoyl)-4-methyl-pentanoyl]amino]phenyl]methyl]triazol-4-yl]methyl]carbamate] the figure was 9.8 ± 0.4 nM; with `CC(C)CC(C(=O)NO)C(=O)Nc1ccc(Cn2cc(CNS(=O)(=O)c3ccccc3)nn2)cc1` (stereo not shown) [Compound 167, N-[4-[[4-(Benzenesulfonamidomethyl)triazol-1-yl]methyl]phenyl]-2-(hydroxycarbamoyl)-4-methyl-pentanamide], 5.5 ± 0.3 nM.
As to `CC(=O)c1ccc(S(=O)(=O)NCc2cn(Cc3ccc(NC(=O)C(CC(C)C)C(=O)NO)cc3)nn2)cc1` (stereo not shown) [Compound 203, N-[4-[[4-[[(4-acetylphenyl)sulfonylamino]methyl]triazol-1-yl]methyl]phenyl]-2-(hydroxycarbamoyl)-4-methyl-pentanamide], the IC50 was 7.9 ± 0.2 nM.
The molecule `CC(C)CC(C(=O)NO)C(=O)Nc1ccc(Cn2nncc2CNS(=O)(=O)c2ccc(I)cc2)cc1` (stereo not shown) [Compound 190, 2-(Hydroxycarbamoyl)-N-[4-[[5-[[(4-iodophenyl)sulfonylamino]methyl]triazol-1-yl]methyl]phenyl]-4-methyl-pentanamide] registered an IC50 of 7.8 ± 0.1 nM.
`CC(C)CC(C(=O)NO)C(=O)Nc1ccc(Cn2cc(CNS(=O)(=O)c3ccc(-c4ccccc4)cc3)nn2)cc1` (stereo not shown) [Hit L3, 2-(Hydroxycarbamoyl)-4-methyl-N-[4-[[4-[[(4-phenylphenyl)sulfonylamino]methyl]triazol-1-yl]methyl]phenyl]pentanamide] showed an IC50 of 13.9 ± 0.3 nM.
The molecule `CC(C)CC(C(=O)NO)C(=O)Nc1ccc(Cn2cc(CNS(=O)(=O)c3ccc(N)cc3)nn2)cc1` (stereo not shown) [Compound 210, N-[4-[[4-[[(4-aminophenyl)sulfonylamino]methyl]triazol-1-yl]methyl]phenyl]-2-(hydroxycarbamoyl)-4-methyl-pentanamide] had an IC50 of 7.7 ± 0.2 nM.
`CC(C)CC(C(=O)NO)C(=O)Nc1ccc(Cn2cc(CNS(=O)(=O)Cc3ccc(Cl)cc3)nn2)cc1` (stereo not shown) [Compound 166, N-[4-[[4-[[(4-Chlorophenyl)methylsulfonylamino]methyl]triazol-1-yl]methyl]phenyl]-2-(hydroxycarbamoyl)-4-methyl-pentanamide]: 5.2 ± 0.3 nM corresponded to half-maximal inhibition (IC50).
Turning to `CC(C)CC(C(=O)NO)C(=O)Nc1ccc(Cn2cc(Cc3ccc(Cl)cc3)nn2)cc1` (stereo not shown) [Compound 137, N-[4-[[4-[(4-Chlorophenyl)methyl]triazol-1-yl]methyl]phenyl]-2-(hydroxycarbamoyl)-4-methyl-pentanamide], the IC50 is 16.9 ± 1.3 nM.
In turn, `CC(C)CC(C(=O)NO)C(=O)Nc1ccc(Cn2nncc2CNS(=O)(=O)CC(C)C)cc1` (stereo not shown) [Compound 192, 2-(Hydroxycarbamoyl)-N-[4-[[5-[(isobutylsulfonylamino)methyl]triazol-1-yl]methyl]phenyl]-4-methyl-pentanamide] had an IC50 of 6.8 ± 0.1 nM.
Under `CC(=O)Nc1ccccc1OCc1cn(Cc2ccc(NC(=O)C(CC(C)C)C(=O)NO)cc2)nn1` (stereo not shown) [Hit L5, N-[4-[[4-[(2-Acetamidophenoxy)methyl]triazol-1-yl]methyl]phenyl]-2-(hydroxycarbamoyl)-4-methyl-pentanamide] stands 13.8 ± 0.3 nM.
The molecule `CC(C)CCC(C(=O)NO)C(=O)Nc1ccc(Cn2cc(CNS(=O)(=O)c3ccc(I)cc3)nn2)cc1` (stereo not shown) [Compound 215, 2-(hydroxycarbamoyl)-N-[4-[[4-[[(4-iodophenyl)sulfonylamino]methyl]triazol-1-yl]methyl]phenyl]-5-methyl-hexanamide] had an IC50 of 48.5 ± 1.4 nM.
`CC(C)CC(C(=O)NO)C(=O)Nc1ccc(Cn2cc(CN3C(=O)c4ccccc4S3(=O)=O)nn2)cc1` (stereo not shown) [Compound 139, 2-(Hydroxycarbamoyl)-4-methyl-N-[4-[[4-[(1,1,3-trioxo-1,2-benzothiazol-2-yl)methyl]triazol-1-yl]methyl]phenyl]pentanamide] returned a concentration for half-maximal inhibition (IC50) of 19.3 ± 0.6 nM.
With `CC(C)CC(C(=O)NO)C(=O)Nc1ccc(Cn2nncc2CNC(=O)OC(C)(C)C)cc1` (stereo not shown) [Compound 185, tert-butyl N-[[3-[[4-[[2-(hydroxycarbamoyl)-4-methyl-pentanoyl]amino]phenyl]methyl]triazol-4-yl]methyl]carbamate], the half-inhibitory concentration (IC50) was found to be 6.5 ± 0.2 nM.
Take `CC(C)CC(C(=O)NO)C(=O)Nc1ccc(Cn2nncc2CNS(=O)(=O)c2ccc(F)cc2)cc1` (stereo not shown) [Compound 191, N-[4-[[5-[[(4-Fluorophenyl)sulfonylamino]methyl]triazol-1-yl]methyl]phenyl]-2-(hydroxycarbamoyl)-4-methyl-pentanamide]: the IC50 came to 7.9 ± 0.1 nM.
In turn, `O=C(NO)C(CC1CC1)C(=O)Nc1ccc(Cn2cc(CNS(=O)(=O)c3ccc(I)cc3)nn2)cc1` (stereo not shown) [Compound 183, 2-(Cyclopropylmethyl)-3-(hydroxyamino)-N-[4-[[4-[[(4-iodophenyl)sulfonylamino]methyl]triazol-1-yl]methyl]phenyl]-3-oxo-propanamide] had an IC50 of 9.9 ± 0.3 nM.
For `CC(C)CC(C(=O)NO)C(=O)Nc1ccc(Cn2cc(CN)nn2)cc1` (stereo not shown) [Compound 140, N-[4-[[4-(Aminomethyl)triazol-1-yl]methyl]phenyl]-2-(hydroxycarbamoyl)-4-methyl-pentanamide], the IC50 came out at 55.9 ± 2.3 nM.
Turning to `CC(C)CC(C(=O)NO)C(=O)Nc1ccc(Cn2cc(CNS(=O)(=O)c3cccc(Cl)c3)nn2)cc1` (stereo not shown) [Compound 164, N-[4-[[4-[[(3-Chlorophenyl)sulfonylamino]methyl]triazol-1-yl]methyl]phenyl]-2-(hydroxycarbamoyl)-4-methyl-pentanamide], inhibition was half-maximal at 2.4 ± 0.1 nM (IC50).
With `COC(=O)c1ccc(S(=O)(=O)NCc2cn(Cc3ccc(NC(=O)C(CC(C)C)C(=O)NO)cc3)nn2)cc1` (stereo not shown) [Compound 204, methyl 4-[[1-[[4-[[2-(hydroxycarbamoyl)-4-methyl-pentanoyl]amino]phenyl]methyl]triazol-4-yl]methylsulfamoyl]benzoate] the figure was 13 ± 0.4 nM; with `CC(C)CC(C(=O)NO)C(=O)Nc1ccc(Cn2cc(CNS(=O)(=O)C3CCCCC3)nn2)cc1` (stereo not shown) [Compound 168, N-[4-[[4-[(Cyclohexylsulfonylamino)methyl]triazol-1-yl]methyl]phenyl]-2-(hydroxycarbamoyl)-4-methyl-pentanamide], 2.7 ± 0.2 nM; with `CC(C)CC(C(=O)NO)C(=O)Nc1ccc(Cn2cc(COc3ccc(Cl)cc3)nn2)cc1` (stereo not shown) [Compound 135, N-[4-[[4-[(4-Chlorophenoxy)methyl]triazol-1-yl]methyl]phenyl]-2-(hydroxycarbamoyl)-4-methyl-pentanamide], 9.8 ± 0.3 nM.
`CC(C)CC(C(=O)NO)C(=O)Nc1ccc(Cn2cc(CNS(=O)(=O)c3ccccc3Cl)nn2)cc1` (stereo not shown) [Compound 163, N-[4-[[4-[[(2-Chlorophenyl)sulfonylamino]methyl]triazol-1-yl]methyl]phenyl]-2-(hydroxycarbamoyl)-4-methyl-pentanamide] came in with an IC50 of 4.3 ± 0.1 nM. Compared with the last molecule, the IC50 is about 2.3-fold lower.
`CC(C)CC(C(=O)NO)C(=O)Nc1ccc(Cn2cc(CNS(=O)(=O)c3ccc(C(C)C)cc3)nn2)cc1` (stereo not shown) [Compound 207, 2-(hydroxycarbamoyl)-N-[4-[[4-[[(4-isopropylphenyl)sulfonylamino]methyl]triazol-1-yl]methyl]phenyl]-4-methyl-pentanamide] returned an IC50 of 3.1 ± 0.1 nM. This IC50 and that of the molecule before are within 1.5-fold of each other.
Regarding `CC(C)CC(C(=O)NO)C(=O)Nc1ccc(Cn2cc(CNC(=O)c3ccc(I)cc3)nn2)cc1` (stereo not shown) [Compound 132, N-[[1-[[4-[[2-(Hydroxycarbamoyl)-4-methyl-pentanoyl]amino]phenyl]methyl]triazol-4-yl]methyl]-4-iodo-benzamide], half-maximal inhibition (IC50) was put at 22.8 ± 0.1 nM. Against the preceding molecule, the IC50 is about 7.4-fold higher.
The molecule `CC(C(=O)NO)C(=O)Nc1ccc(Cn2cc(CNS(=O)(=O)c3ccc(I)cc3)nn2)cc1` (stereo not shown) [Compound 217, 3-(hydroxyamino)-N-[4-[[4-[[(4-iodophenyl)sulfonylamino]methyl]triazol-1-yl]methyl]phenyl]-2-methyl-3-oxo-propanamide] had an IC50 of 278 ± 9.7 nM.
As to `CC(C)CC(C(=O)NO)C(=O)Nc1ccc(Cn2cc(CNc3ccc(I)cc3)nn2)cc1` (stereo not shown) [Compound 134, 2-(Hydroxycarbamoyl)-N-[4-[[4-[(4-iodoanilino)methyl]triazol-1-yl]methyl]phenyl]-4-methyl-pentanamide], the IC50 turned out to be 8.4 ± 0.5 nM.
